Test results as given in US20220170930A1, “METHOD FOR SCREENING COMPOUND FOR TREATING OR PREVENTING POLYQ-RELATED NEURODEGENERATIVE DISEASES” (FUDAN UNIVERSITY, priority 2019, published 2022).

How the values were obtained:
[1] = biological target: T1, mutant ATXN1 protein (His-ATXN1-Q92) (Homo sapiens, UniProt P54253, INS208QQQQQQQQQQQQQQQQQQQQQQQQQQQQQQQQQQQQQQQQQQQQQQQQQQQQQQQQQQQQQQQQQQQQQQQQQQQQQQQQ); assay: HTRF mutant ATXN1 level in His-ATXN1-Q92-expressing cells; assay type: cell-based; conditions: 100 nM, 2 days, anti-His-Tb/MW1-D2
T1 construct: expressed in transfected cells; host or cells: HEK293T cells (ATCC, CRL-3216)
T1 sequence (P54253 with tags, fused parts or gaps with the stated changes): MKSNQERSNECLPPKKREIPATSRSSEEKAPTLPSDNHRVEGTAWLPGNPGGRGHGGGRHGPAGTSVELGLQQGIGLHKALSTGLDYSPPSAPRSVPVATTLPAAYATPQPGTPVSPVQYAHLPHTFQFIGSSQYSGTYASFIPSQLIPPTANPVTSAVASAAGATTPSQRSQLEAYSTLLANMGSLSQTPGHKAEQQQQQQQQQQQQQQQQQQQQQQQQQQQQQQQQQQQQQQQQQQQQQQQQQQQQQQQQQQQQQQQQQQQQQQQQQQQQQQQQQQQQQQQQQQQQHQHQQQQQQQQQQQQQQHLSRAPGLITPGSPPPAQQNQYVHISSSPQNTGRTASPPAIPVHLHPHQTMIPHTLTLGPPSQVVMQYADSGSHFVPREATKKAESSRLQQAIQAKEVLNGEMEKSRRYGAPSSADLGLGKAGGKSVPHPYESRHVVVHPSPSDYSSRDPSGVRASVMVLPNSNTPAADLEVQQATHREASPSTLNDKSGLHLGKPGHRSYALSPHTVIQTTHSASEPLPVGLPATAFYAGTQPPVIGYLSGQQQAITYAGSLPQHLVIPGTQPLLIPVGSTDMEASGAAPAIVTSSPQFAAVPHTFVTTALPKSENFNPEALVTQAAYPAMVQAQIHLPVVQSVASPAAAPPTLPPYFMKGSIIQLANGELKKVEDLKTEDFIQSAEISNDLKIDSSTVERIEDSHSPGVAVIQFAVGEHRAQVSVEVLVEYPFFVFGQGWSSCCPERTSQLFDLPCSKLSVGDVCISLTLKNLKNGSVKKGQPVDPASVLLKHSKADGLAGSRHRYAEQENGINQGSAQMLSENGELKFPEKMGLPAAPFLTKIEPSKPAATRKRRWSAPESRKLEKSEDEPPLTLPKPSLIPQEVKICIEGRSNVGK

HTTexon1-Q72-MBP = biological target: T2, HTTexon1-Q72-MBP (Homo sapiens, UniProt P42858, INS38QQQQQQQQQQQQQQQQQQQQQQQQQQQQQQQQQQQQQQQQQQQQQQQQQQQ); assay: OI-RD affinity screening and affinity reaction parameters with HTTexon1-Q72; assay type: binding
T2 construct: made in house; host or cells: mammalian expression vector pTT5SH8Q2
T2 sequence (P42858 with tags, fused parts or gaps, stated change not applied): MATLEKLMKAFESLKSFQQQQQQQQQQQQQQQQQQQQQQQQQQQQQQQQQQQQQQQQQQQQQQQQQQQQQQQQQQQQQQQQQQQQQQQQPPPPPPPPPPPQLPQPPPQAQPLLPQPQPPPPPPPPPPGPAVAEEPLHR
Experimental: Each compound was printed in duplicate on the microarray. The compound not fixed on the surface of the chip was washed away. The chip was sealed and cleaned. 01-RD microscope was applied to scan the images. […] The chips are cleaned and scanned.
The difference images of the above steps (1), (2), (3) (the image after incubation minus the image before incubation) was analyzed respectively.
Each compound was printed in triplicates on the microarray. 01-RD was used to measure the affinity reaction parameters of compounds with HTTexon1-Q72 and HTTexon1-Q25.

flHTT-Q73 = biological target: T3, flHTT-Q73 (Homo sapiens, UniProt P42858, INS38QQQQQQQQQQQQQQQQQQQQQQQQQQQQQQQQQQQQQQQQQQQQQQQQQQQQ); assay: MST affinity with flHTT-Q73; assay type: binding; conditions: MST, flHTT-Q73, protein 500 nM; read-out: Kd
T3 construct: LC3B, full-length mHTT (flHTT-Q73) and full-length HTT-Q23 (flHTT-Q23); protein A (N, cleaved yes); made in house; host or cells: human embryonic kidney E293 cells
T3 sequence (P42858 with tags, fused parts or gaps with the stated changes): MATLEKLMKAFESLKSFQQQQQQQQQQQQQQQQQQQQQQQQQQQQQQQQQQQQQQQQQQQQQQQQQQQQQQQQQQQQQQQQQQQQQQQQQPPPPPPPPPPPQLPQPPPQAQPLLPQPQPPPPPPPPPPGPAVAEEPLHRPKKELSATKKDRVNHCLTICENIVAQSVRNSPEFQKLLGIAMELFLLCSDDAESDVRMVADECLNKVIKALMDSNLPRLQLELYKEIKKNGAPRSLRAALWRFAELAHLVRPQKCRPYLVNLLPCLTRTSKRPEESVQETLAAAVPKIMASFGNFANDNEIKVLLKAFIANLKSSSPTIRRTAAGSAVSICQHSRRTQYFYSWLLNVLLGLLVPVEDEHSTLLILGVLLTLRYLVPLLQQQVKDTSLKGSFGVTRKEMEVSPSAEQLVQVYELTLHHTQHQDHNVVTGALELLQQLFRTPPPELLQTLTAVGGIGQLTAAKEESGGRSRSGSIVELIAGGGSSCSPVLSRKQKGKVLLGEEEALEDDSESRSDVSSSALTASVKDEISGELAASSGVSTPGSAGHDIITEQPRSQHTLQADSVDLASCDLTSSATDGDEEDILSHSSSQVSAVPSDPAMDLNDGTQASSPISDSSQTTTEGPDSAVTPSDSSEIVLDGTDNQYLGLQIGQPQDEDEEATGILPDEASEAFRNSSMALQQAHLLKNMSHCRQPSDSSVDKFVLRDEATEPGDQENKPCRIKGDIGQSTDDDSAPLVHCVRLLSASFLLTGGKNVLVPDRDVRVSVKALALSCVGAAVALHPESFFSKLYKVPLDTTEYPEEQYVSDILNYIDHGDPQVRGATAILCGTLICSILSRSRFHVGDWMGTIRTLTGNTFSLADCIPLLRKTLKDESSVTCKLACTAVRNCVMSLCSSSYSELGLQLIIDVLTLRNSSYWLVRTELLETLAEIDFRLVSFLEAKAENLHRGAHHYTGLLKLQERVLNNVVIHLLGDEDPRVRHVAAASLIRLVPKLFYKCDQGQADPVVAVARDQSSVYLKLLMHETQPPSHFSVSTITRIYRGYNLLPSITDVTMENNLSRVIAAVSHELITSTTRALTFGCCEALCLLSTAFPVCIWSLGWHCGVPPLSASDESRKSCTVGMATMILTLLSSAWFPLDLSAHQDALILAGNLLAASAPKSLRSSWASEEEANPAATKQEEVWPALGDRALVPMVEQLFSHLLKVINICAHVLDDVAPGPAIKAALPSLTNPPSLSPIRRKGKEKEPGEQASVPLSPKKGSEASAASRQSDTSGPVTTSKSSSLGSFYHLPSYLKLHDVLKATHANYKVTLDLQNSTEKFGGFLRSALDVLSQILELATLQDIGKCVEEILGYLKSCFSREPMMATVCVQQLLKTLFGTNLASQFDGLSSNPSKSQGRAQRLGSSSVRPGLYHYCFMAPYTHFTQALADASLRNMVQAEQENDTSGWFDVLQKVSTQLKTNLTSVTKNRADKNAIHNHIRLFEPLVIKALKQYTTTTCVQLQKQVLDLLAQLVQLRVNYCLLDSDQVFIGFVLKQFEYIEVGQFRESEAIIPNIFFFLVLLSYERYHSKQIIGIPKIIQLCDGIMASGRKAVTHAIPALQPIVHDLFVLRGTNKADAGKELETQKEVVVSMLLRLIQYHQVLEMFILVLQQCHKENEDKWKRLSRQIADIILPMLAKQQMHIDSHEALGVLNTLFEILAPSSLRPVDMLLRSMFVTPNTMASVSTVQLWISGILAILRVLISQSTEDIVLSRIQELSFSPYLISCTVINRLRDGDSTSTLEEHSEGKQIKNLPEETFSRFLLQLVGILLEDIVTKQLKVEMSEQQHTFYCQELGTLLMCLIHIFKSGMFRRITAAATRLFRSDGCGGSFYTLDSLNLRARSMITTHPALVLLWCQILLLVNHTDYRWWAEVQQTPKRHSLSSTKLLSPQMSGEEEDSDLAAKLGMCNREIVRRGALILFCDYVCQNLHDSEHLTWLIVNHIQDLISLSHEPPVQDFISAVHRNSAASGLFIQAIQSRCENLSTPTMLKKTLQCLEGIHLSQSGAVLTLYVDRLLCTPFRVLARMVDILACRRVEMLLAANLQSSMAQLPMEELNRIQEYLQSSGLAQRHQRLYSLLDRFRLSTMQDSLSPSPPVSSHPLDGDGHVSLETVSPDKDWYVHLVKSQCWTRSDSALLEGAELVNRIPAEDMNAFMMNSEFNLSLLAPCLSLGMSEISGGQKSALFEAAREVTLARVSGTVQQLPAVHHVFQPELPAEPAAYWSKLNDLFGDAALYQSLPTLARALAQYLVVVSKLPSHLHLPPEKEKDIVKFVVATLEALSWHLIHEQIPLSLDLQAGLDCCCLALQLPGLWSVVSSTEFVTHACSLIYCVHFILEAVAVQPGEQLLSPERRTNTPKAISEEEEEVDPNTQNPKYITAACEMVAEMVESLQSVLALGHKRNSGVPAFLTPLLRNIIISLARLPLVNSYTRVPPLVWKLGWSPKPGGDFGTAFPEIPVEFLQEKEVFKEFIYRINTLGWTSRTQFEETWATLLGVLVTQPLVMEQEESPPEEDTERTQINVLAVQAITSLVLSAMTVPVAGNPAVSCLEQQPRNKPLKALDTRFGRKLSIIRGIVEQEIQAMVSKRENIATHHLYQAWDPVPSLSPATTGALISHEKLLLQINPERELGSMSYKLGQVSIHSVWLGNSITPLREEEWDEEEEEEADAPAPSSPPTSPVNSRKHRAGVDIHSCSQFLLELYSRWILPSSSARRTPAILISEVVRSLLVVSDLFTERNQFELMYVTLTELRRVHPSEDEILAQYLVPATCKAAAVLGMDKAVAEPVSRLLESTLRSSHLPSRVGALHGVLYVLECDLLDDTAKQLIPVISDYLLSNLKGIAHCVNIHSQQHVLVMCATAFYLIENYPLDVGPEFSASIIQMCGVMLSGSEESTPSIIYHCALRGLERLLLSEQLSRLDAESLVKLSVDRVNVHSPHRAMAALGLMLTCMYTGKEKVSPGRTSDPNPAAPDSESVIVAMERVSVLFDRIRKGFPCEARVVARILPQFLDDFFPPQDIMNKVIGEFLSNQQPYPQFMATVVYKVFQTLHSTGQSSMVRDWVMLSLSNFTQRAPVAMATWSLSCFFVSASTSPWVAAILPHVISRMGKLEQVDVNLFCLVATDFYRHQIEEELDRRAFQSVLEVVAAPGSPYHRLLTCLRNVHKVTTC

[2] = test system: proteins with expanded polyglutamine (polyQ-GFP); assay: OI-RD affinity screening with polyQ-GFP proteins; assay type: binding; conditions: OI-RD difference images
Experimental: To identify compound(s) that can selectively bind to proteins containing expanded polyglutamine, screening was conducted using a method similar to 1.1, except for that the target protein HTTexon1-Q72-MBP in step (1) of 1.1 was replaced with the polyQ-GFP protein prepared in 10.1, and the target protein HTTexon1-Q25-MBP in step (2) of 1.1 was replaced with GFP.

## O=C1Nc2ccc(I)cc2/C1=C/c1cc(Br)c(O)c(Br)c1 [compound 1, GW5074]
[1]
  level of mutant ATXN1 protein (His-ATXN1-Q92): Decreased levels of mutant ATXN1 were observed
HTTexon1-Q72-MBP; OI-RD difference images
  binding to HTTexon1-Q72: can bind
HTTexon1-Q72-MBP; OI-RD, HTTexon1-Q72
  Koff: 0.000238 s⁻¹
  Kon: 9.07e-05 min/nM
HTTexon1-Q72-MBP; OI-RD, HTTexon1-Q72, read-out: Kd
  Kd: 158 nM
flHTT-Q73
  Kd: 3460 nM
[2]
  binding affinity to proteins with 38 or more glutamine repeats: showed certain binding affinity
